In US9790252B2, “2-fluorinated riboses and arabinoses and methods of use and synthesis” (CORNELL UNIVERSITY, priority 2009, dated 2017):

Key:
HEK293 cells = test: Toxicity to HEK293 cells (MTT); assay type: cell-based; details: for 100 μM absorbance / 100 μM relative viability: HEK293, 100 μM; for 100 μM absorbance / 100 μM relative viability / 500 μM absorbance / 500 μM relative viability: 12 hours; for 100 μM absorbance / 500 μM absorbance: 570 nm; for 100 μM relative viability / 500 μM relative viability: control = 1; for 500 μM absorbance / 500 μM relative viability: HEK293, 500 μM; for EC50: HEK293, 2′-deoxy-2′-fluoro-nucleosides and nucleotides
Method: 1. HEK293 cells were seeded in 96-well plate at a density of 25,000 cells/well the day before the experiment starts;
2. After the cells reach 50˜60% confluency, media was taken out, and 100 μL of fresh media was added to each well;
3. F-derivatives were plated at 100 and 500 μM (in duplicates) concentrations;
4. After 12 hours' incubation at 37° C., the media was taken out, 100 μL of fresh media was added to each well along with 20 μL of 5 mg/mL of MTT solution (in PBS);
5. After 1.5 hours' incubation at 37° C., media was taken out and 100 μL of DMSO was added to each well, the plate was mixed on shaker for 5 mins;
(§1) Absorbance was measured at 570 nm.
(§2) Assay for Determining Toxicity to HEK293 and Neuro2A Cells • 1. HEK293 and Neuro2A cells were seeded in 96-well plate at a density of 25,000 cells/well the day before the experiment starts; • 2. After the cells reach 50˜60% confluency, media was taken out, and 100 μL of fresh media was added to each well; • 3. Cl-derivatives were plated at 100 and 500 μM (in duplicates) concentrations; • 4. After 12 hours' incubation at 37° C., the media was taken out, 100 μL of fresh media was added to each well along with 20 μL of 5 mg/mL of MTT solution (in PBS); • 5. After 2 hours' incubation at 37° C., media was taken out and 100 μL of DMSO was added to each well, the plate was mixed on shaker for 5 mins; • 6. Absorbance was measured at 570 nm.

Neuro2A cells = test: Toxicity to Neuro2A cells (MTT); assay type: cell-based; details: for 100 μM absorbance / 100 μM relative viability / 500 μM absorbance / 500 μM relative viability: 12 hours; for 100 μM absorbance / 500 μM absorbance: 570 nm; for EC50: 2′-deoxy-2′-fluoro-nucleosides and nucleotides
Method: 6. Neuro2A cells were seeded in 96-well plate at a density of 25,000 cells/well the day before the experiment starts;
7. After the cells reach 50˜60% confluency, media was taken out, and 100 μL of fresh media was added to each well;
8. […]
9. After 12 hours' incubation at 37° C., the media was taken out, 100 μL of fresh media was added to each well along with 20 μL of 5 mg/mL of MTT solution (in PBS);
10. After 1.5 hours' incubation at 37° C., media was taken out and 100 μL of DMSO was added to each well, the plate was mixed on shaker for 5 mins;
as §1
as §2, with “Cl-derivatives were plated at 100 and 500 μM (in duplicates) concentrations; • 4.” left out

SirT3 = biological target: T1, SirT3 (Homo sapiens, UniProt Q9NTG7); test: SirT3 activity assay (HPLC of 2′- and 3′-AADPR); assay type: biochemical
T1 sequence (Q9NTG7 1-399): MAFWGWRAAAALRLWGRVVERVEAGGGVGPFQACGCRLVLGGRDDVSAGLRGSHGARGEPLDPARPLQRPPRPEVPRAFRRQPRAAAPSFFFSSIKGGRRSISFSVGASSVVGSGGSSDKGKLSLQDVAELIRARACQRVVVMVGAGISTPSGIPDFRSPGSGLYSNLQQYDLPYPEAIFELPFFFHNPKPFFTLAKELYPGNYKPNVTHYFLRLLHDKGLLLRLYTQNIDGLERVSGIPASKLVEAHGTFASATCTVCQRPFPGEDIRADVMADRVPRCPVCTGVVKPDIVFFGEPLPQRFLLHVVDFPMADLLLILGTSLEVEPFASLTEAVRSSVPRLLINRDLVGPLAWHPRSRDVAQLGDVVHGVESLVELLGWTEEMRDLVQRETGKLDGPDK
Method: (§3) Reactions containing 800 μM NAD^+, 500 μM H3 peptide, and 100 mM phosphate buffer at pH 7.5, with varying concentrations of 2′-deoxy-2′-fluoro-nucleosides or nucleotides were initiated by addition of SirT3 enzyme to a concentration of 13.9 μM. Reactions were incubated for 2 hours at 37° C. and quenched by addition of trifluoroacetic acid to pH 2. After centrifugation to remove precipitates, reactions were injected on HPLC for activity analysis. Production of 2′- and 3′-AADPR were analyzed at 260 nm.
as §3, with “SirT3 Activity Assay: Reactions containing” for “Reactions containing”, “concentrations of 2′-deoxy-2′-chloro-nucleosides were initiated” for “concentrations of 2′-deoxy-2′-fluoro-nucleosides or nucleotides were initiated”

SirT2 = biological target: T2, SirT2 (Homo sapiens, UniProt Q8IXJ6); test: SirT2 activity assay (HPLC of 2′- and 3′-AADPR); assay type: biochemical; details: at 1 mM; read-out: SirT2 % inhibited
T2 sequence (Q8IXJ6 1-389): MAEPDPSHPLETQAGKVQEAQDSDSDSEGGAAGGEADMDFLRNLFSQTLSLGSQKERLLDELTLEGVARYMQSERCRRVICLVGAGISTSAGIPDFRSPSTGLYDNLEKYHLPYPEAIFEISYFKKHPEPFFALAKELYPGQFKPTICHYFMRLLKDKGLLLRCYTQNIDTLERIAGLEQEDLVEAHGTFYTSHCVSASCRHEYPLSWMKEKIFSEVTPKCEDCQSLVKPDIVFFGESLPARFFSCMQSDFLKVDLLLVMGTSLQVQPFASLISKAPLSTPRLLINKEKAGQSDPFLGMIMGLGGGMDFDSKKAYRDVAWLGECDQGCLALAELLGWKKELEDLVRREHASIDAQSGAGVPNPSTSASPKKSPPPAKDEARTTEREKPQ
Method: as §3, with “SirT2” for “SirT3”, “16.6” for “13.9”, “45 mins” for “2 hours”
SirT2 Activity Assay: Reactions containing 800 μM NAD^+, 500 μM H3 peptide, and 100 mM phosphate buffer at pH 7.5, with varying concentrations of 2′-deoxy-2′-chloro-nucleosides were initiated by addition of SirT2 enzyme to a concentration of 16.6 μM. Reactions were incubated for 45 mins at 37° C. and quenched by addition of trifluoroacetic acid to pH 2. After centrifugation to remove precipitates, reactions were injected on HPLC for activity analysis. Production of 2′- and 3′-AADPR were analyzed at 260 nm.

[1] = MTT 2 hours, chloro-nucleosides
[2] = control = 1, chloro-nucleosides

| inhibition at 1000 µM (SirT2) | Compound | 100 μM absorbance (HEK293 cells; MTT 1.5 hours) | 100 μM relative viability (HEK293 cells) | 500 μM absorbance (HEK293 cells; MTT 1.5 hours) | 500 μM relative viability (HEK293 cells) | EC50 (HEK293 cells) | 100 μM absorbance (Neuro2A cells; MTT 1.5 hours) | 100 μM relative viability (Neuro2A cells; control = 1) | 500 μM absorbance (Neuro2A cells; MTT 1.5 hours) | 500 μM relative viability (Neuro2A cells; control = 1) | EC50 (Neuro2A cells) | other results |
| --- | --- | --- | --- | --- | --- | --- | --- | --- | --- | --- | --- | --- |
|  | 2′-deoxy-2′-fluoro-ribo-NAD^+ [ribo-F-NAD] | 1.4985 | 0.6592 | 1.384 | 0.6087 | 1020 µM | 1.6122 | 0.663 | 0.6455 | 0.265 | 350 µM |  |
|  | NC(=O)c1ccc[n+]([C@@H]2O[C@H](COP(=O)([O-])OP(=O)(O)OC[C@H]3O[C@@H](n4cnc5c(N)ncnc54)[C@H](O)[C@@H]3O)[C@@H](O)[C@@H]2F)c1 [ara-F-NAD, 2′-deoxy-2′-fluoro-arabino-NAD^+] | 1.523 | 0.6699 | 1.302 | 0.5729 | 1000 µM | 2.2482 | 0.924 | 1.7012 | 0.699 | 1500 µM |  |
|  | NC(=O)c1ccc[n+]([C@H]2O[C@H](CO)C(O)C2Cl)c1 (stereo partly drawn) [α-ara-Cl-NR, 1-(2′-deoxy-2′-chloro-arabinofuranosyl)-nicotinamide] |  |  |  |  |  |  |  |  |  |  | 100 μM absorbance (HEK293 cells; [1]): 2.09; 100 μM relative viability (HEK293 cells; chloro-nucleosides): 0.8601; 500 μM absorbance (HEK293 cells; [1]): 1.77; 500 μM relative viability (HEK293 cells; chloro-nucleosides): 0.7284; kills % of HEK293 cells (HEK293 cells; HEK293, at 500 μM): kills 30% at 500 μM; 100 μM absorbance (Neuro2A cells; [1]): 2.575; 100 μM relative viability (Neuro2A cells; [2]): 1.089; 500 μM absorbance (Neuro2A cells; [1]): 2.34; 500 μM relative viability (Neuro2A cells; [2]): 0.9894; toxicity to Neuro2A (in words) (Neuro2A cells; at 500 μM): not toxic at 500 μM |
| 50% | NC(=O)c1ccc[n+]([C@H]2O[C@H](CO)C(O)[C@@H]2Cl)c1 (stereo partly drawn) [α-ribo-Cl-NR, 1-(2-deoxy-2-chloro-D-ribofuranosyl)-nicotinamide] |  |  |  |  |  |  |  |  |  |  | inhibition at 1000 µM (SirT3; at 1 mM, read-out: SirT3 % inhibited): 86% |
| 43% | NC(=O)c1ccc[n+]([C@@H]2O[C@H](CO)C(O)[C@@H]2Cl)c1 (stereo partly drawn) [β-ribo-Cl-NR, 1-(2-deoxy-2-chloro-D-ribofuranosyl)-nicotinamide] |  |  |  |  |  |  |  |  |  |  | Ki (SirT3; 800 μM NAD+, 500 μM H3 peptide, pH 7.5, 2 hours at 37° C.): 82 µM |
